Here are results for twelve molecules from ChEMBL document CHEMBL3232772, “Spiramine derivatives induce apoptosis of Bax(-/-)/Bak(-/-) cell and cancer cells” (Bioorg Med Chem Lett, 2014).

Molecules are shown by their SMILES. Calls of active or inactive are those of the source. The calls are words filed in the database; no cut-off is given here.

In one test the test system is SMMC-7721. Kind of test: Cytotoxicity against human SMMC7721 cells after 48 hrs by MTT assay. Type of test: functional, cell-based. Conditions: SMMC-7721, 48 h.
Another test deals with A549. In words: Cytotoxicity against human A549 cells after 48 hrs by MTT assay. Type of test: functional, cell-based. Conditions: A549, 48 h.
Test [1] relates to MEF. Kind of test: Induction of apoptosis in Bax(-/-)/Bak(-/-) MEF at 10 uM after 24 to 48 hrs. Format: functional, cell-based. The conditions noted are these: Mus musculus.
In another test the test system is HL-60. Kind of test: Cytotoxicity against human HL60 cells after 48 hrs by MTT assay. Type of test: functional, cell-based. The conditions noted are these: HL-60, 48 h.
The subject of the next test is MCF7. In words: Cytotoxicity against human MCF7 cells after 48 hrs by MTT assay. Type of test: functional, cell-based. The conditions noted are these: MCF7, 48 h.
Test [2] has as its system SW480. Kind of test: Cytotoxicity against human SW480 cells after 48 hrs by MTT assay. Format: functional, cell-based. The conditions noted are these: SW480, 48 h.
For test [3], the system named is MEF. Kind of test: Induction of apoptosis in Bax(-/-)/Bak(-/-) MEF after 48 hrs. Format: functional, cell-based. Conditions: Mus musculus.
The test system of test [4] is MEF. In words: Induction of apoptosis in Bax(-/-)/Bak(-/-) MEF assessed as late apoptotic cells at 20 uM after 24 hrs using annexin V-FITC and propidium iodide staining by flow cytometry (reference value: 3.3%). Type of test: functional, Mus musculus.
The subject of test [5] is SW480. In words: Induction of apoptosis in human SW480 cells assessed as late apoptotic cells at 20 uM after 24 hrs using annexin V-FITC and propidium iodide staining by flow cytometry (reference value: 1.0%). Type of test: functional.
Test [6] deals with MEF. In words: Induction of apoptosis in Bax(-/-)/Bak(-/-) MEF assessed as activation of caspase activity at 20 uM after 24 hrs by CASPACE-FITC staining (reference value: 12.2%). Format: functional, Mus musculus.
In test [7] the test system is MEF. Kind of test: Induction of apoptosis in Bax(-/-)/Bak(-/-) MEF assessed as early apoptotic cells at 20 uM after 24 hrs using annexin V-FITC and propidium iodide staining by flow cytometry (reference value: 0.6%). Type of test: functional, Mus musculus.
Test [8] deals with SW480. Kind of test: Induction of apoptosis in human SW480 cells assessed as activation of caspase activity at 20 uM after 24 hrs by CASPACE-FITC staining (reference value: 6.2%). Type of test: functional.
Test [9] has as its system SW480. In words: Induction of apoptosis in human SW480 cells assessed as early apoptotic cells at 20 uM after 24 hrs using annexin V-FITC and propidium iodide staining by flow cytometry (reference value: 1.4%). Type of test: functional.
For another test, the system named is NCI/ADR-RES. Kind of test: Resistant factor, ratio of IC50 for human MCF7/ADR cells to IC50 for human MCF7 cells. Format: functional.
Test [10] can be described thus: Cytotoxicity against human MCF7/ADR cells after 48 hrs by MTT assay. Format: functional, cell-based. The conditions noted are these: NCI/ADR-RES.
Test [11] has as its system MEF. Kind of test: Induction of apoptosis in Bax(-/-)/Bak(-/-) MEF assessed as late apoptotic cells at 10 uM after 24 hrs using annexin V-FITC and propidium iodide staining by flow cytometry (reference value: 3.3%). Format: functional, Mus musculus.
Test [12] relates to SW480. Kind of test: Induction of apoptosis in human SW480 cells assessed as early apoptotic cells at 10 uM after 24 hrs using annexin V-FITC and propidium iodide staining by flow cytometry (reference value: 1.4%). Type of test: functional.
Test [13] relates to MEF. Kind of test: Induction of apoptosis in Bax(-/-)/Bak(-/-) MEF assessed as activation of caspase activity at 10 uM after 24 hrs by CASPACE-FITC staining (reference value: 12.2%). Type of test: functional, Mus musculus.
The subject of test [14] is SW480. Kind of test: Induction of apoptosis in human SW480 cells assessed as activation of caspase activity at 10 uM after 24 hrs by CASPACE-FITC staining (reference value: 6.2%). Type of test: functional.
For test [15], the system named is SW480. In words: Induction of apoptosis in human SW480 cells assessed as late apoptotic cells at 10 uM after 24 hrs using annexin V-FITC and propidium iodide staining by flow cytometry (reference value: 1.0%). Format: functional.
In test [16] the test system is MEF. Kind of test: Induction of apoptosis in Bax(-/-)/Bak(-/-) MEF assessed as early apoptotic cells at 10 uM after 24 hrs using annexin V-FITC and propidium iodide staining by flow cytometry (reference value: 0.6%). Type of test: functional, Mus musculus.

Consider `C=C1C(=O)[C@]23CC[C@H]1C[C@H]2[C@@]12CCC[C@@]4(C)CN(CCO)[C@H]1O[C@@H]3C[C@H]42`, for which the IC50 was 23.6 µM in the test on SMMC-7721; 18.6 µM in the test with A549; 19.3 µM in the test on HL-60; 10.3 µM with MCF7; 14 µM with SW480 [2]. Further, the result in the test with MEF [1] was Active.

Take `C=C1C(=O)[C@]23CC[C@H]1C[C@H]2[C@@]12CCC[C@@](C)(CN(CCO)C1)[C@H]2C[C@H]3O`: the IC50 came out at 11.2 µM in the test on SMMC-7721; 9.92 µM in the test with A549; 7.95 µM in the test on HL-60; 16.6 µM in the test with MCF7; 14.4 µM in the test with SW480 [2]. In addition, in the test with MEF [1], the outcome was Active.

As to `C=C1C(=O)[C@]23CC[C@H]1C[C@H]2[C@@]12CCC[C@@]4(C)C(=O)N(CCO)[C@H]1O[C@@H]3C[C@@H]24`, the IC50 with SMMC-7721 stood at 18.4 µM; in the test with A549, 17.9 µM; with HL-60, 18.6 µM; in the test on MCF7 it was 13.2 µM; in the test on SW480 [2], 12.4 µM. Moreover, the outcome with MEF [1] was Active.

On to `C=C1C(=O)[C@]23CC[C@H]1C[C@H]2[C@@]12CCC[C@@]4(C)C5OCCN5[C@H]1O[C@@H]3C[C@@H]24` (stereo partly drawn), for which the concentration for half-maximal inhibition (IC50) in the test on SMMC-7721 is 1.04 µM; in the test with MEF [3], 2.24 µM; with A549 it was 2.03 µM; in the test on HL-60, 1.34 µM; in the test on MCF7 it was 0.67 µM; in the test with SW480 [2], 1.97 µM. In addition, the Activity is 86.2% with MEF [4]; 15.9% in the test on SW480 [5]; 87.8% in the test on MEF [6]; 1.9% in the test on MEF [7]; 18.2% with SW480 [8]; 16.9% with SW480 [9]. Moreover, in the test with MEF [1], the outcome was Active.

As to `C=C1C(=O)[C@]23CC[C@H]1C[C@H]2[C@@]12CCC[C@@]4(C)C(=O)N[C@H]1O[C@@H]3C[C@@H]24`, the IC50 came to 15.7 µM in the test with SMMC-7721; 19 µM in the test on A549; 18.6 µM in the test on HL-60; 15.7 µM with MCF7; 14.2 µM with SW480 [2]; 28.3 µM in [10]. In addition, in the test with MEF [1], the outcome was Active. Besides, in the test with NCI/ADR-RES, the “Ratio IC50” value worked out at 1.4.

For `C=C1C(=O)[C@]23CC[C@H]1C[C@H]2[C@@]12CCC[C@@](C)(CN(CCO)C1)[C@H]2C(=C)C3=O`, the IC50 in the test on SMMC-7721 came out at 11.5 µM; in the test on MEF [3], 1.81 µM; with A549, 6.5 µM; in the test on HL-60, 6.61 µM; with MCF7, 3.57 µM; with SW480 [2], 2.81 µM. The Activity in the test on MEF [4] turned out to be 76.8%; in the test on SW480 [5], 44.2%; in the test with MEF [6], 97.1%; with MEF [7], 28.2%; in the test on SW480 [8] it was 29.8%; in the test on SW480 [9], 13.1%. Also, the result in the test with MEF [1] was Active.

On to `C=C1C(=O)[C@@]23CC[C@@H](C[C@H]2[C@@]24CCC[C@@](C)(CN(CCO)C2)[C@@H]14)C(=C)[C@@H]3O`, for which the IC50 was 1.48 µM in the test on SMMC-7721; 3.04 µM in the test with A549; 4.82 µM in the test on HL-60; 6.98 µM with MCF7; 9.84 µM in the test with SW480 [2]. Further, the outcome in the test with MEF [1] was Active.

For `C=C1C(=O)[C@]23CC[C@H]1C[C@H]2[C@@]12CCC[C@@](C)(COC1=O)[C@H]2C[C@H]3O`, the IC50 was 3.96 µM in the test with SMMC-7721; 1.74 µM in the test with MEF [3]; 3.22 µM with A549; 6.36 µM with HL-60; 3.25 µM with MCF7; 3.58 µM in the test with SW480 [2]. For the same molecule, the result in the test on MEF [1] was Active.

Regarding `COc1cccc2c1C(=O)c1c(O)c3c(c(O)c1C2=O)C[C@@](O)(C(=O)CO)C[C@@H]3O[C@H]1C[C@H](N)[C@H](O)[C@H](C)O1` [DOXORUBICIN], the “Ratio IC50” value in the test on NCI/ADR-RES is on record as 888.75. Further, the IC50 turned out to be 0.077 µM in the test on MCF7 and 68.4 µM in [10].

Turning to `C=C1C(=O)[C@]23CC[C@H]1C[C@H]2[C@@]12CCC[C@@](C)(C(=O)N4CCO[C@H]41)[C@H]2C[C@H]3O`, the Activity was found to be 2.1% in the test with MEF [11]; 68.3% with MEF [4]; 25.5% in the test on SW480 [12]; 40.1% in the test on SW480 [5]; 14.3% with MEF [13]; 93.2% in the test on MEF [6]. Further, the Activity is 21.7% in the test with MEF [7]; 12.1% in the test on SW480 [14]; 8.6% in the test on SW480 [15]; 60.1% with SW480 [8]; 46.7% in the test on SW480 [9]; 8.6% with MEF [16]. Besides, the IC50 is 2.63 µM in the test with SMMC-7721; 3.38 µM in the test on MEF [3]; 3.09 µM in the test with A549; 2.73 µM in the test on HL-60; 1.12 µM in the test on MCF7; 2.81 µM with SW480 [2]. The molecule also displayed an IC50 in test [10] of 8.8 µM. Moreover, in the test with MEF [1], the result was Active. For the same molecule, in the test on NCI/ADR-RES, the “Ratio IC50” value came to 1.66.

As for `C=C1C(=O)[C@]23CC[C@H]1C[C@H]2[C@@]12CCC[C@@](C)(CN(CCO)C1)[C@H]2CC3=O`, the IC50 with SMMC-7721 worked out at 15.2 µM; in the test with MEF [3] it was 4.52 µM; in the test with A549, 9.24 µM; in the test on HL-60, 14.3 µM; with MCF7, 15.7 µM; in the test with SW480 [2] it was 11.8 µM. For the same molecule, the Activity in the test with MEF [4] turned out to be 52.2%; in the test with SW480 [5], 13.3%; in the test on MEF [6], 66.6%; in the test with MEF [7], 11.7%; in the test on SW480 [8], 10.9%; in the test with SW480 [9] it was 10.9%. In addition, the result with MEF [1] was Active.

Turning to `C=C1C(=O)[C@]23CC[C@H]1C[C@H]2[C@@]12CCC[C@@](C)(CN(CCO[Si](C)(C)C(C)(C)C)C1)[C@H]2C(=C)C3=O`, the IC50 with SMMC-7721 stood at 2.63 µM; in the test with A549, 1.55 µM; in the test on HL-60, 1.39 µM; with MCF7, 2.9 µM; in the test with SW480 [2], 2.78 µM. Besides, the result in the test on MEF [1] was Active.
